Assay results from patent US6933318B1, “Topical organic ectoparasiticidal formulations” (Eli Lilly and Company, priority 1999, dated 2005).
Entries after “also recorded” stand apart in the source; their conditions may differ.

Assay: Wetting test of solvent systems on tanned rabbit pelt
Format: physicochemical
Settings: about 1 mL solvent without active ingredient, dropwise, pelt at about 45°
Experimental: To determine organic solvents that are useful spreading agents, solvent systems that are capable of solubilizing at least 1% spinosad by weight percent were screened for hair wetting by applying about 1 mL of the solvent system (solvents were screened without active ingredient), dropwise, to a tanned rabbit pelt that was at an angle of about 45°. […]

SMILES | Ability to wet rabbit hair
CCCCCCCCCCCCCC(=O)OC(C)C [isopropyl myristate] | Wet Well
CCCCCCCC(=O)O [octanoic acid] | Wet Well
CCCCOC(=O)C(C)O (stereo not shown) [butyl lactate] | Wet Well
CCCCCCCCCC(=O)OC [methyl caprate] | Wet Well
CCCCCCCC/C=C\CCCCCCCC(=O)OC [methyl oleate] | Wet Well
COC(C)COC(C)CO (stereo not shown) [dipropylene glycol methyl ether] | wet the hair very well; also recorded: Wet Well
CC(=O)OCC(COC(C)=O)OC(C)=O [triacetin] | Did Not Wet
CCCCCCCCCCCC(=O)OC [methyl laurate] | Wet Well
C=C(C)[C@H]1CC=C(C)CC1 [limonene] | Wet Well
CN1CCCC1=O [N-methyl pyrrolidone] | Did Not Wet
CCCCCCCC/C=C\CCCCCCCC(=O)OCC [ethyl oleate] | Wet Well
CC(O)CO (stereo not shown) [propylene glycol] | Did Not Wet
CCCCCCO [hexanol] | Wet Well
